Test results published in ChEMBL document CHEMBL1137427, “Efforts toward oral bioavailability in factor VIIa inhibitors” (Bioorg Med Chem Lett, 2006).

Tests used:
[1] = molecular target: T1, Coagulation factor VII (Homo sapiens, UniProt P08709)
T1 sequence (P08709 whole entry): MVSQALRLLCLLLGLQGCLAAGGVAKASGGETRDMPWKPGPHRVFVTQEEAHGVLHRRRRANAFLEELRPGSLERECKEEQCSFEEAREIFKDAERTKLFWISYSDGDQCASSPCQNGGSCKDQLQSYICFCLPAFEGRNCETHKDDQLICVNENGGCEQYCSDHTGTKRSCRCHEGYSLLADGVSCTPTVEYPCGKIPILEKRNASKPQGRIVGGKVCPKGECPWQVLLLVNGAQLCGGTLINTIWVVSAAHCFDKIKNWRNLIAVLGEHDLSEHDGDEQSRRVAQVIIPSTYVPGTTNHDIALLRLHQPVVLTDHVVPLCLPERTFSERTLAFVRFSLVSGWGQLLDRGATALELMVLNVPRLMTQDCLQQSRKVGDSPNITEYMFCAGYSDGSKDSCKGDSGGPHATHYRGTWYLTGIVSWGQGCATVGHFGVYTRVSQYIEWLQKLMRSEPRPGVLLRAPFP

[2] = Mean residence time in iv dosed rat; type: ADME, organism-based; conditions: in vivo
[3] = Tmax in jugular vein catheter of Sprague-Dawley rat at 10 mg/kg, po; type: ADME, organism-based; parameters: dose 10 mg/kg, route oral; conditions: in vivo
[4] = Oral bioavailability in Sprague-Dawley rat at 10 mg/kg, po (AUC po, jv/AUC iv, jv); type: ADME, organism-based; conditions: in vivo
[5] = Cmax in portal vein catheter of Sprague-Dawley rat at 10 mg/kg, po; type: ADME, organism-based; parameters: dose 10 mg/kg, route oral; conditions: in vivo
[6] = Tmax in portal vein catheter of Sprague-Dawley rat at 10 mg/kg, po; type: ADME, organism-based; parameters: dose 10 mg/kg, route oral; conditions: in vivo
[7] = Terminal half life in portal vein catheter of Sprague-Dawley rat at 10 mg/kg, po; type: ADME, organism-based; parameters: dose 10 mg/kg, route oral; conditions: in vivo
[8] = AUC in jugular vein catheter of Sprague-Dawley rat at 10 mg/kg, po; type: ADME, organism-based; parameters: dose 10 mg/kg, route oral; conditions: plasma
[9] = Oral absorption in Sprague-Dawley rat at 10 mg/kg, po (AUC po, pv/AUC iv, jv); type: ADME, organism-based; parameters: dose 10 mg/kg, route oral; conditions: in vivo
[10] = Terminal half life in jugular vein catheter of Sprague-Dawley rat at 10 mg/kg, po; type: ADME, organism-based; parameters: dose 10 mg/kg, route oral; conditions: in vivo
[11] = AUC in portal vein catheter of Sprague-Dawley rat at 10 mg/kg, po; type: ADME, organism-based; parameters: dose 10 mg/kg, route oral; conditions: plasma
[12] = Cmax in jugular vein catheter of Sprague-Dawley rat at 10 mg/kg, po; type: ADME, organism-based; parameters: dose 10 mg/kg, route oral; conditions: in vivo
[13] = molecular target: Coagulation factor VII/tissue factor (Homo sapiens) (UniProt P08709+P13726); conditions: Plasma
Description: Anticoagulant potency in human plasma as measured by prothrombin time

[14] = Mean residence time in iv dosed Sprague-Dawley rat; type: ADME, organism-based; conditions: in vivo

Ki [1] [nM]	MRT [2] [min]	2PT [13] [µM]	Compound	also measured
14	< 20	–	N=C(N)c1ccc2[nH]c(-c3cc(CC(=O)O)cc(-c4cc(CNC(N)=O)ccc4O)c3O)nc2c1	–
–	–	–	CCCCCC(=O)NCc1ccc(O)c(-c2cccc(-c3cc4cc(C(=N)NO)ccc4[nH]3)c2O)c1	Tmax [3]: 30 min; bioavailability [4]: 11%; Cmax [5]: 1310 nM; Tmax [6]: 31 min; half-life [7]: 49 min; AUC [8]: 2.4 µM·h; Fa [9]: 9%; half-life [10]: 54 min; AUC [11]: 2.03 µM·h; Cmax [12]: 1730 nM
120	–	–	CC(=O)NCc1ccc(O)c(-c2cccc(-c3cc4cc(C(=N)N)ccc4[nH]3)c2O)c1	–
16	–	0.9	CN(C)CCCC(=O)NCc1ccc(O)c(-c2cccc(-c3cc4cc(C(=N)N)ccc4[nH]3)c2O)c1	MRT [14]: 50 min
17	–	2	N=C(N)c1ccc2[nH]c(-c3cccc(-c4cc(CNC(=O)N5CCOCC5)ccc4O)c3O)cc2c1	–
3	–	0.9	N=C(N)c1ccc2[nH]c(-c3cccc(-c4cc(CNC(=O)CO)ccc4O)c3O)cc2c1	MRT [14]: 117 min
1	> 60	1.9	N=C(N)c1ccc2[nH]c(-c3cc(C(CC(=O)O)C(=O)O)cc(-c4cc(CNC(N)=O)ccc4O)c3O)nc2c1 (centres undefined)	–
13	–	1.4	CCCCCC(=O)NCc1ccc(O)c(-c2cccc(-c3cc4cc(C(=N)N)ccc4[nH]3)c2O)c1	Tmax [3]: 30 min; Cmax [5]: 14 nM; Tmax [6]: 40 min; half-life [7]: 26 min; AUC [8]: 0.0122 µM·h; half-life [10]: 37 min; AUC [11]: 0.0147 µM·h; MRT [14]: 89 min; Cmax [12]: 12 nM
5	< 20	2.5	N=C(N)c1ccc2[nH]c(-c3cc(F)cc(-c4cc(CNC(N)=O)ccc4O)c3O)nc2c1	–
4	< 20	2	Cc1cc(-c2nc3cc(C(=N)N)ccc3[nH]2)c(O)c(-c2cc(CNC(N)=O)ccc2O)c1	–

Compound	Ki [1] [nM]	MRT [2] [min]	2PT [13] [µM]	also measured
N=C(N)c1ccc2[nH]c(-c3cccc(-c4cc(CNC(N)=O)ccc4O)c3O)nc2c1	14	20	2.3	–
